In one assay the target is Histone deacetylase 1 (Homo sapiens, UniProt Q13547). Briefly: Inhibition of HDAC1 (unknown origin).
A further assay has as its target Histone deacetylase 4 (Homo sapiens, UniProt P56524). Nature of the assay: Inhibition of HDAC4 (unknown origin).
The target of another assay is T1, Histone deacetylase 8 (Homo sapiens, UniProt Q9BY41).
T1 sequence (Q9BY41 whole entry): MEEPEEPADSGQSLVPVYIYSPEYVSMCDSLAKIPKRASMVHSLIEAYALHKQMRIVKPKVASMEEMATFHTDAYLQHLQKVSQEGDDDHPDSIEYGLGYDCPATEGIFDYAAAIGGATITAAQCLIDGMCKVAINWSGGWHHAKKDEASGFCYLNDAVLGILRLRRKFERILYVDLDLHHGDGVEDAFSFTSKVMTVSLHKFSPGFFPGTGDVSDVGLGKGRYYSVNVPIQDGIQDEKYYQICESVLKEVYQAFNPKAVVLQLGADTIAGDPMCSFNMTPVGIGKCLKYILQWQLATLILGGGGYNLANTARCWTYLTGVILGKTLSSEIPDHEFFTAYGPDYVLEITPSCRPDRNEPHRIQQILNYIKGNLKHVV
Nature of the assay: Inhibition of HDAC8 (unknown origin).

Another assay concerns the target Histone deacetylase 3 (Homo sapiens, UniProt O15379). Nature of the assay: Inhibition of HDAC3 (unknown origin).
For the next assay, the target named is T2, Histone deacetylase 11 (Homo sapiens, UniProt Q96DB2).
T2 sequence (Q96DB2 whole entry): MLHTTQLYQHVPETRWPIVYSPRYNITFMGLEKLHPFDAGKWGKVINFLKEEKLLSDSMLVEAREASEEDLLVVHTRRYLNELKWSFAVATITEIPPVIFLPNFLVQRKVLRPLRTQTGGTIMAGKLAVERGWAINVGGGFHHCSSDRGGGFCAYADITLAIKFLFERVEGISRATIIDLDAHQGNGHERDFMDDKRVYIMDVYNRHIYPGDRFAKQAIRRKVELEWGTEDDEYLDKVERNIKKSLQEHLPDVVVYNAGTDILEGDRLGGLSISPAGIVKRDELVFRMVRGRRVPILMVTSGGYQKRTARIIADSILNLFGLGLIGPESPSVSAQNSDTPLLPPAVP
Nature of the assay: Inhibition of HDAC11 (unknown origin).

Assay [1] deals with T3, Polyamine deacetylase HDAC10 (Homo sapiens, UniProt Q969S8).
T3 sequence (Q969S8 whole entry): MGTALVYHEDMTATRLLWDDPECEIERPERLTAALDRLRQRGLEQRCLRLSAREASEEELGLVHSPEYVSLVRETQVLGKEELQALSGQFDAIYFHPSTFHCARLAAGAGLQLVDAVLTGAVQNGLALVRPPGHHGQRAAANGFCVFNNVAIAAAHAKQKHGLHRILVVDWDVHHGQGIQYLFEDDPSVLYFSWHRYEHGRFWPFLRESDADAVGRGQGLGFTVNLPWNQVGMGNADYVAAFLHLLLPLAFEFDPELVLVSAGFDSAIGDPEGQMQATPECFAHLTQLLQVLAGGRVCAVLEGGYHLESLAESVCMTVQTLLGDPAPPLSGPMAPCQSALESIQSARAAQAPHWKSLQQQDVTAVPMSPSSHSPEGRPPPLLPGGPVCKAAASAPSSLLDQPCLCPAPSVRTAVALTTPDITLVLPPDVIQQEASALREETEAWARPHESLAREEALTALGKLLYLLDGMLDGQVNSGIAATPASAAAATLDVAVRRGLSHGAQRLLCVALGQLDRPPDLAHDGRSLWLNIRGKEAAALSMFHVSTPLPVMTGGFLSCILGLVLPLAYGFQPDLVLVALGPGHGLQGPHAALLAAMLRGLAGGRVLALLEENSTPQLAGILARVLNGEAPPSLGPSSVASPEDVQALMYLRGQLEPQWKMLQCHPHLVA
Briefly: Inhibition of HDAC10 (unknown origin).

Assay [2] addresses T4, Protein deacetylase HDAC6 (Homo sapiens, UniProt Q9UBN7).
T4 sequence (Q9UBN7 whole entry): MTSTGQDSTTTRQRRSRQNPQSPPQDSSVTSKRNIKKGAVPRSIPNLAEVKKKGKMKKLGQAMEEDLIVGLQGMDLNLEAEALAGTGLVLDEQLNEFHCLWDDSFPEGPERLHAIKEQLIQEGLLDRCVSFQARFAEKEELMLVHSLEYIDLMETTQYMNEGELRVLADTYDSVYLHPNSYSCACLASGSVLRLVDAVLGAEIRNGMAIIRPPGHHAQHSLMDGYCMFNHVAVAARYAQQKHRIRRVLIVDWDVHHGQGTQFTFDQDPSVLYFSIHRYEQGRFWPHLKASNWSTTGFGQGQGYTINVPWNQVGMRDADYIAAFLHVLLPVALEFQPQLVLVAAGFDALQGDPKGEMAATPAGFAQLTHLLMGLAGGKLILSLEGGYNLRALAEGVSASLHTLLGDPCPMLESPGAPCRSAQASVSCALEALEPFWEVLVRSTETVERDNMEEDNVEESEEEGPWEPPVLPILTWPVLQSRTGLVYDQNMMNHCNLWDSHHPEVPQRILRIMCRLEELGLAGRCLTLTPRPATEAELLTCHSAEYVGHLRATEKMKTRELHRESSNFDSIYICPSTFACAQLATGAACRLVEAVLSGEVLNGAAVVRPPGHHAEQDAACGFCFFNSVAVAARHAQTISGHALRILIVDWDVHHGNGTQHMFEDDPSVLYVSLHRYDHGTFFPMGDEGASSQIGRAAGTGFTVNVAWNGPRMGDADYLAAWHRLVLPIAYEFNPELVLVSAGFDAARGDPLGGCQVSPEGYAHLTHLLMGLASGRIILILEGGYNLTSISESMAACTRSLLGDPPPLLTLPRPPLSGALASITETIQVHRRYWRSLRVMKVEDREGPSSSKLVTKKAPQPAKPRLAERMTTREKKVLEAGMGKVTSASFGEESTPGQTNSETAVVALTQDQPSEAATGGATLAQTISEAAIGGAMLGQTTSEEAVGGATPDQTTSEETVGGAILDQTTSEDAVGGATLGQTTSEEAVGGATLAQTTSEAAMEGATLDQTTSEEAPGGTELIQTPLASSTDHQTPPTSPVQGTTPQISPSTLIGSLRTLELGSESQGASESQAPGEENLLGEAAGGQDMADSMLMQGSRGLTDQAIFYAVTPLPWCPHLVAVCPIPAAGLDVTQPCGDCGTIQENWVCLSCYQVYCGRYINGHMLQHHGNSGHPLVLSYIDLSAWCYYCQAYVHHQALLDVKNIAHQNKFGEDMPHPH
Nature of the assay: Inhibition of HDAC6 (unknown origin).

A further assay concerns the target Histone deacetylase 9 (Homo sapiens, UniProt Q9UKV0). Nature of the assay: Inhibition of HDAC9 (unknown origin).

Where only a bound is given, the exact number is not on record here.

Histone deacetylase 4, sequence (P56524 whole entry): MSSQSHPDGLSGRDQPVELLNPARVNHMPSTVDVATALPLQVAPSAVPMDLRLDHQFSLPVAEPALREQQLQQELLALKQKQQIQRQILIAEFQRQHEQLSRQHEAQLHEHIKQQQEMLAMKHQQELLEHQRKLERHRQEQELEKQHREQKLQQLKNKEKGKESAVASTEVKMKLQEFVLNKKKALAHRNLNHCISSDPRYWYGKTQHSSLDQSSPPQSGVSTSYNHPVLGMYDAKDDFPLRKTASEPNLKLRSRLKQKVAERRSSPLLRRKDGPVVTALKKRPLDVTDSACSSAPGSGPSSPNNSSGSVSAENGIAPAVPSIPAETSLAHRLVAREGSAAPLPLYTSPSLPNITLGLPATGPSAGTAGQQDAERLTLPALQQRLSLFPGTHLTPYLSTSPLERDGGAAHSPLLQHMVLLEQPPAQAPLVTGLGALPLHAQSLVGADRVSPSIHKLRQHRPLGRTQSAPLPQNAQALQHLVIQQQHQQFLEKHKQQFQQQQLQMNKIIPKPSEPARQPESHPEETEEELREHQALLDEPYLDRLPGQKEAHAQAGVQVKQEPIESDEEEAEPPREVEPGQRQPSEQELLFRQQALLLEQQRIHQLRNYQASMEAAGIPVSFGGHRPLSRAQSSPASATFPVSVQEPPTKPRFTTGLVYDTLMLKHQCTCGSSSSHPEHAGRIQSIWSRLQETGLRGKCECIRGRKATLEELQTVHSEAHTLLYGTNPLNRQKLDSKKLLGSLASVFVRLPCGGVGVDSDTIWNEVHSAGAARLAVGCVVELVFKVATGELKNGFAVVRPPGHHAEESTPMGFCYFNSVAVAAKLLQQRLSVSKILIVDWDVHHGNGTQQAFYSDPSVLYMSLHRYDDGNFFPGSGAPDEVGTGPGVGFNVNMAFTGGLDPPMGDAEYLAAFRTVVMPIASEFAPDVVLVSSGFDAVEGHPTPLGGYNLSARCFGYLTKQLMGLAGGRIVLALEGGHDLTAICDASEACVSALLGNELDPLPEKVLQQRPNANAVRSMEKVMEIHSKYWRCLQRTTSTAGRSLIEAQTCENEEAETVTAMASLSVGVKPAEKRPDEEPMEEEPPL
Histone deacetylase 3, sequence (O15379 whole entry): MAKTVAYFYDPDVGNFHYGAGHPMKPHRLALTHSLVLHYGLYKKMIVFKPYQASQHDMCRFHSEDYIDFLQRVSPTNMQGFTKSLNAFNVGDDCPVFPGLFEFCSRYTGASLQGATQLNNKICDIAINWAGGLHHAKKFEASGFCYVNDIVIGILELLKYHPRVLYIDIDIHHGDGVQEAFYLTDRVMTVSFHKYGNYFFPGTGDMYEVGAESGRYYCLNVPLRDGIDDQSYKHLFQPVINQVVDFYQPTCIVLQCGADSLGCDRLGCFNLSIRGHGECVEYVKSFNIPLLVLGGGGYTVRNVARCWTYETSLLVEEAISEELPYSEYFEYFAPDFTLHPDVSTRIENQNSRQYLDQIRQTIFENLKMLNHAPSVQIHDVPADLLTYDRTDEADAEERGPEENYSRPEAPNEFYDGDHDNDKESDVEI
Histone deacetylase 1, sequence (Q13547 whole entry): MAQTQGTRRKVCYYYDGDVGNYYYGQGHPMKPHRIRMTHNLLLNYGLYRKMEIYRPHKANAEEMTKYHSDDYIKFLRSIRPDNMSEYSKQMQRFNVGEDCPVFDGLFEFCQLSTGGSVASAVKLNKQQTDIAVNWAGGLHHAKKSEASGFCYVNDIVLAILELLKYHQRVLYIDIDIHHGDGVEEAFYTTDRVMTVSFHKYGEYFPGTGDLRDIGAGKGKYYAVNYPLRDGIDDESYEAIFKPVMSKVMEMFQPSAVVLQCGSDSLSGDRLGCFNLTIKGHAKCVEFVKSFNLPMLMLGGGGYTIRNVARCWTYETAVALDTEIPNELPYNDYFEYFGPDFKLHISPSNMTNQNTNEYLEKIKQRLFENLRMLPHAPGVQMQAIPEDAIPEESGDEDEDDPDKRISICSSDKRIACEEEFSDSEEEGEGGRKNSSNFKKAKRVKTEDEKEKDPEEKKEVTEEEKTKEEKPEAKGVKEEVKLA
Histone deacetylase 9, sequence (Q9UKV0 whole entry): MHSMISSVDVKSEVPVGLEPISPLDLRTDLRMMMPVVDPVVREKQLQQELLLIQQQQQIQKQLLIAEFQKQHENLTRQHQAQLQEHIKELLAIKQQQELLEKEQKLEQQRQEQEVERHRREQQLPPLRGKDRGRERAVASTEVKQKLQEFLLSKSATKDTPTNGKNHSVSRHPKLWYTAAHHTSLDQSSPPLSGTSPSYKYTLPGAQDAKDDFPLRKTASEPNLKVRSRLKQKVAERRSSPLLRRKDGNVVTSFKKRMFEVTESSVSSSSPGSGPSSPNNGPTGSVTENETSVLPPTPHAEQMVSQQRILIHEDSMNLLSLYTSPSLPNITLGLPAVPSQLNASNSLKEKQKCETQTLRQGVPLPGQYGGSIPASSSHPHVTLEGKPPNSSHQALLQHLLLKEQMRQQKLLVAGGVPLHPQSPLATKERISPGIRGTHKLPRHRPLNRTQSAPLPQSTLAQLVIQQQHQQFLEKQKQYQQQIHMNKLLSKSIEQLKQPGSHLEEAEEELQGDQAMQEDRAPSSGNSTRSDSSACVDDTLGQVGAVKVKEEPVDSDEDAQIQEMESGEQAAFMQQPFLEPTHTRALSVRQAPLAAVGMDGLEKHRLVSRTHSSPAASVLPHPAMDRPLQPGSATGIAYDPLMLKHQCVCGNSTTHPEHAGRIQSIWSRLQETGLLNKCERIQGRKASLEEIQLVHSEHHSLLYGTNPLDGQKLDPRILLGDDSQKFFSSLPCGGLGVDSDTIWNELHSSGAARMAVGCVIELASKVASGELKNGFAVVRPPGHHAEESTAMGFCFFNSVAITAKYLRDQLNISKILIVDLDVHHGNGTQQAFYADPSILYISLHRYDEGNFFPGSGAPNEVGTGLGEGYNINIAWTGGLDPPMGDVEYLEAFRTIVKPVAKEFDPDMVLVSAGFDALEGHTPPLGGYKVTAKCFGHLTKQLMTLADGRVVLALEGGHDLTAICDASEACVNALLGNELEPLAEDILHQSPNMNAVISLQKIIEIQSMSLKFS

The term IC50 denotes the concentration that inhibits the measured activity by half. With `O=C(NO)c1ccc(CN2c3ccccc3[S+]([O-])C[C@H]3CCCC[C@H]32)cc1` (stereo partly drawn), the IC50 against Histone deacetylase 1 is 4.9 µM; against Histone deacetylase 4, > 30 µM; against Histone deacetylase 8, 2900 nM; against Histone deacetylase 3, 26 µM; against Histone deacetylase 11, 540 nM; in assay [1] it was 14 µM. The IC50 came out at 100 nM in assay [2] and 8.9 µM against Histone deacetylase 9.
